Measured values as given in the CheMixHub ionic liquid set.

Test: xn = mol fraction of the nth substance listed

CCCCCCCCCCCC[P+](CCCC)(CCCC)CCCC.N#Cc1ccc[n-]1 + OCCN(CCO)CCO
100 kPa
Conditions | electrical conductivity [S/m] | viscosity [mPa·s]
293.15 K, x1 = 0.001 | 0.0001 | –
293.15 K, x1 = 0.015 | 0.0027 | –
293.15 K, x1 = 0.035 | 0.0034 | 1037
293.15 K, x1 = 0.121 | – | 1056
293.15 K, x1 = 0.538 | 0.0049 | 770
293.15 K, x1 = 1 | 0.0082 | 567
298.15 K, x1 = 0.035 | – | 670
298.15 K, x1 = 0.325 | – | 623
298.15 K, x1 = 0.755 | – | 477
298.15 K, x1 = 1 | – | 389
303.15 K, x1 = 0.017 | – | 436
303.15 K, x1 = 0.054 | – | 439
303.15 K, x1 = 0.325 | – | 421
303.15 K, x1 = 0.755 | – | 336
303.15 K, x1 = 1 | – | 297
313.15 K, x1 = 0.096 | – | 217
313.15 K, x1 = 0.325 | – | 209

CC[n+]1ccn(C)c1.F[B-](F)(F)F + CCCCCC[n+]1ccn(C)c1.F[B-](F)(F)F
101 kPa, x1 = 1
Conditions | viscosity [mPa·s]
299.15 K | 34.52
308.15 K | 25.54

CC(O)C(=O)[O-].C[N+](C)(C)CCO + CCO
101 kPa
Conditions | viscosity [mPa·s]
293.15 K, x2 = 0.2996 | 225.4
293.15 K, x2 = 0.7013 | 17.75
293.15 K, x2 = 0.7987 | 8.579
298.15 K, x2 = 0.7987 | 7.357
303.15 K, x2 = 0.601 | 25.96
303.15 K, x2 = 0.8996 | 2.853
308.15 K, x2 = 0.2011 | 144.8
318.15 K, x2 = 0 | 158.7
318.15 K, x2 = 0.601 | 15.05
323.15 K, x2 = 0.1039 | 91.6
323.15 K, x2 = 0.5003 | 20.51
323.15 K, x2 = 0.7987 | 3.792
328.15 K, x2 = 0.1039 | 72.67
328.15 K, x2 = 0.601 | 11.1
328.15 K, x2 = 0.7987 | 3.387
333.15 K, x2 = 0.1039 | 58.6
333.15 K, x2 = 0.601 | 9.667
338.15 K, x2 = 0.3999 | 19.08

Cc1cnc[nH]1 + CC[n+]1ccn(C)c1.[Cl-]
101.33 kPa, x2 = 0.667
Conditions | viscosity [mPa·s]
303.15 K | 326
313.15 K | 151.3
323.15 K | 84.8
333.15 K | 51.8
343.15 K | 32.73
353.15 K | 22.56

CO + COP(=O)([O-])OC.Cn1cc[n+](C)c1
101 kPa, x1 = 1
Conditions | viscosity [mPa·s]
303.15 K | 0.521
318.15 K | 0.44

CCC(=O)[O-].COCCn1cc[n+](C)c1 + O
100 kPa
Conditions | electrical conductivity [S/m] | viscosity [mPa·s]
288.15 K, x1 = 0.8302 | 0.318 | 81.8
288.15 K, x1 = 0.8877 | 0.241 | 96.6
288.15 K, x1 = 1 | 0.109 | 125.5
293.15 K, x1 = 0.9474 | 0.222 | 84.9
298.15 K, x1 = 0.8302 | 0.426 | 46.94
298.15 K, x1 = 0.9474 | 0.285 | 63.84
298.15 K, x1 = 1 | 0.228 | 70.11
303.15 K, x1 = 0.8579 | 0.483 | 39.8
313.15 K, x1 = 0.9474 | 0.588 | 31.35
318.15 K, x1 = 0.8579 | 0.839 | 20
318.15 K, x1 = 0.9474 | 0.726 | 24.42

C[N+](C)(C)Cc1ccccc1.[Cl-] + O=C([O-])C1=NN(c2ccc(S(=O)(=O)[O-])cc2)C(=O)C1N=Nc1ccc(S(=O)(=O)[O-])cc1.[Na+].[Na+].[Na+] + O
electrical conductivity [S/m], 101.3 kPa, frequency 0.001 MHz
Conditions | 298.15 K | 308.15 K | 318.15 K
x2 = 0, x1 = 1.802e-05 | 0.0137 | 0.0183 | 0.0233
x2 = 0, x1 = 5.406e-05 | 0.0295 | 0.0398 | 0.0456
x2 = 0, x1 = 9.009e-05 | 0.0457 | 0.0565 | 0.0643

viscosity [mPa·s], 101.3 kPa
Conditions | 298.15 K | 308.15 K | 318.15 K
x2 = 0, x1 = 1.802e-05 | 0.88 | 0.726 | 0.611
x2 = 0, x1 = 5.406e-05 | 0.897 | 0.747 | 0.627
x2 = 0, x1 = 9.009e-05 | 0.914 | 0.766 | 0.646

CC(O)C(=O)[O-].CCC[N+]1(C)CCCC1 + CC#N
298 K, 101 kPa
Conditions | electrical conductivity [S/m]
x2 = 0.724 | 2.67
x2 = 0.749 | 2.89
x2 = 0.801 | 3.19
x2 = 0.825 | 3.33
x2 = 0.849 | 3.54
x2 = 0.873 | 3.56
x2 = 0.898 | 3.5
x2 = 0.91 | 3.5
x2 = 0.921 | 3.37
x2 = 0.929 | 3.24

C[N+](CCO)(CCO)CCOCCO.[Cl-] + OCCO
101 kPa, x1 = 0.3322
Conditions | viscosity [mPa·s]
283.15 K | 474
288.15 K | 335
293.15 K | 243.1
298.15 K | 179.2
303.15 K | 136.1
308.15 K | 104.7
313.15 K | 81.8
318.15 K | 65.1
323.15 K | 52.4
328.15 K | 42.78
333.15 K | 35.43
338.15 K | 29.52
343.15 K | 24.91
348.15 K | 21.24
353.15 K | 18.37

CO + CC[n+]1ccn(C)c1C.F[B-](F)(F)F
Conditions | viscosity [mPa·s]
308.15 K, 101.3 kPa, x2 = 0 | 0.467

CC[S+](CC)CCOCCOCCOCCOCC[S+](CC)CC.O=S(=O)([N-]S(=O)(=O)C(F)(F)F)C(F)(F)F.O=S(=O)([N-]S(=O)(=O)C(F)(F)F)C(F)(F)F + CC[n+]1ccn(C)c1.N#C[N-]C#N + O=S(=O)([N-]S(=O)(=O)C(F)(F)F)C(F)(F)F.[Li+]
100 kPa, x1 = 0.1416, x2 = 0.7549
Conditions | electrical conductivity [S/m]
298 K | 0.679
303 K | 0.979
313 K | 1.29
323 K | 1.7
333 K | 2.05
343 K | 2.41

O=C[O-].OCC[NH2+]CCO + O
100 kPa
Conditions | viscosity [mPa·s]
293.15 K, x1 = 0.075 | 3.25
293.15 K, x1 = 0.3185 | 36.2
293.15 K, x1 = 1 | 471
303.15 K, x1 = 0.0292 | 1.34
303.15 K, x1 = 0.7987 | 172
313.15 K, x1 = 0.075 | 1.99
333.15 K, x1 = 0.3185 | 8.4
333.15 K, x1 = 0.7987 | 40.4
343.15 K, x1 = 0.5932 | 15.3
343.15 K, x1 = 1 | 35.9

ClCCl + CCCC[n+]1ccn(C)c1.F[P-](F)(F)(F)(F)F
298.15 K, 101 kPa
Conditions | electrical conductivity [S/m] | viscosity [mPa·s]
x1 = 0.2451 | 0.394 | 89
x1 = 0.4351 | 0.731 | 34.7

CCCC[n+]1ccc(C)cc1.N#C[S-] + O
101 kPa
Conditions | viscosity [mPa·s]
298.15 K, x2 = 0.0564 | 74.9
298.15 K, x2 = 0.9714 | 1.58
308.15 K, x2 = 0.6364 | 10.02
308.15 K, x2 = 0.9714 | 1.24
318.15 K, x1 = 0.0076 | 0.73
318.15 K, x2 = 0 | 33.9
318.15 K, x2 = 0.9714 | 1.01
328.15 K, x2 = 0.9028 | 1.71
328.15 K, x2 = 0.957 | 1.01
328.15 K, x2 = 0.9714 | 0.84
338.15 K, x2 = 0 | 17.3
338.15 K, x2 = 0.1655 | 12.9
338.15 K, x2 = 0.3797 | 8.38
338.15 K, x2 = 0.4628 | 7.17
338.15 K, x2 = 0.5669 | 5.54
338.15 K, x2 = 0.7623 | 2.94
338.15 K, x2 = 0.9714 | 0.73
348.15 K, x2 = 0.1655 | 9.89
348.15 K, x2 = 0.5669 | 4.45
348.15 K, x2 = 0.957 | 0.75

CC[n+]1ccn(C)c1.O=S(=O)([N-]S(=O)(=O)C(F)(F)F)C(F)(F)F + [I-].[Li+]
101 kPa, x1 = 1
Conditions | electrical conductivity [S/m]
288.15 K | 0.611
298.15 K | 0.883
333.15 K | 2.18

c1ccccc1 + CCCCCCCC[n+]1ccc2ccccc2c1.O=S(=O)([N-]S(=O)(=O)C(F)(F)F)C(F)(F)F
101 kPa, x1 = 1
Conditions | viscosity [mPa·s]
308.15 K | 0.53
328.15 K | 0.42

C[N+](C)(C)Cc1ccccc1.[Cl-] + OCC(O)CO
Conditions | electrical conductivity, 298 K [S/m] | viscosity, 288.15 K [mPa·s] | viscosity, 308 K [mPa·s]
100 kPa, x1 = 0.25 | – | 1875 | –
101.13 kPa, x1 = 0.5 | 0.069 | – | 80
